The values that follow are results of earlier work, collected in patent publication US6068858A, “Methods of making nanocrystalline formulations of human immunodeficiency virus (HIV) protease inhibitors using cellulosic surface stabilizers” (Elan Pharma International Limited, priority 1999, dated 2000).

System in the first series: not given
The conditions noted are these: as reported in literature.
For `CSC[C@H](NC(=O)COc1cccc2cnccc12)C(=O)N[C@@H](Cc1ccccc1)[C@H](O)C(=O)N1CSC[C@H]1C(=O)NC(C)(C)C` [KNI-272], the oral bioavailability entry is given as “low oral bioavailability”.

In the case of `N#Cc1ccc(S(=O)(=O)Nc2cccc(C(c3c(O)c4c(oc3=O)CCCCCC4)C3CC3)c2)cc1` (stereo not shown) [U-103,017], the oral bioavailability entry was “low oral bioavailability”.

The series is the same for the next values; noted with them: in vivo, po.
On to `CC(C)c1nc(CN(C)C(=O)N[C@H](C(=O)N[C@@H](Cc2ccccc2)C[C@H](O)[C@H](Cc2ccccc2)NC(=O)OCc2cncs2)C(C)C)cs1` [ABT-538], for which the oral bioavailability entry is “low oral bioavailability”.

In the case of `Cc1c(O)cccc1C(=O)N[C@@H](CSc1ccccc1)[C@H](O)CN1C[C@H]2CCCC[C@H]2C[C@H]1C(=O)NC(C)(C)C` [AG1343], the oral bioavailability result is recorded as “low oral bioavailability”.

As to `Nc1cccc(CN2C(=O)N(Cc3cccc(N)c3)[C@H](Cc3ccccc3)[C@H](O)[C@@H](O)[C@H]2Cc2ccccc2)c1` [DMP-450], the oral bioavailability result is recorded as “low oral bioavailability”.

On to `CC(C)(C)NC(=O)[C@@H]1CN(Cc2cccnc2)CCN1C[C@@H](O)C[C@@H](Cc1ccccc1)C(=O)N[C@H]1c2ccccc2C[C@H]1O` [MK-639], for which the oral bioavailability entry is “low oral bioavailability”.

For `CC(C)CN(C[C@@H](O)[C@H](Cc1ccccc1)NC(=O)O[C@H]1CCOC1)S(=O)(=O)c1ccc(N)cc1` [VX-478], the oral bioavailability result was “low oral bioavailability”.

As for `CC(C)(C)NC(=O)[C@@H]1C[C@@H]2CCCC[C@@H]2CN1C[C@@H](O)[C@H](Cc1ccccc1)NC(=O)[C@H](CC(N)=O)NC(=O)c1ccc2ccccc2n1` [saquinavir], the oral bioavailability result was “low oral bioavailability”.

Another series deals with HIV RT. As to conditions: background statement.
Turning to `O[C@H](CS)[C@H](O)CS` (racemic) [ddT, dithiothreitol], the “effectiveness in treating HIV infection” value is on record as “only modestly effective”.

Consider `O=c1[nH]cnc2c1ncn2[C@H]1CC[C@@H](CO)O1` [ddI, didanosine], for which the “effectiveness in treating HIV infection” value is listed as “only modestly effective”.

The same series, now with this note: background statement; interfere with cellular enzymes.
Regarding `O[C@H](CS)[C@H](O)CS` (racemic) [ddT, dithiothreitol], the side effects entry is “severe side effects”.

Regarding `Cc1cn([C@H]2C[C@H](N=[N+]=[N-])[C@@H](CO)O2)c(=O)[nH]c1=O` [AZT, azidothymidine], the side effects entry was “severe side effects”.

Consider `O=c1[nH]cnc2c1ncn2[C@H]1CC[C@@H](CO)O1` [ddI, didanosine], for which the side effects result is reported as “severe side effects”.
